# Test: GMBT, influence of a promotility agent
# Assay type: in vivo, human
# Settings: Cisapride 10 mg the evening before and one half hour before a 350 kcal muffin test meal
# Procedure: An experiment was done to examine the ability of the GMBT to detect changes introduced by the promotility agent, Cisapride. Gastric emptying tests employing a 350 kcal muffin test meal were administered on two occasions within a one-week period. One test was conducted as a control. The other test was conducted after treatment with Cisapride. Cisapride (10 mg) was administered at 10:00 P.M. on the evening prior to the test and one half hour before administration of the muffin test meal. Gastric emptying results for the control meal were delayed relative to the meal administered with Cisapride.
smiles,measurement,setting,value
COc1cc(N)c(Cl)cc1C(=O)NC1CCN(CCCOc2ccc(F)cc2)CC1OC (centres unmarked) [Cisapride],change in T½ versus control,p=0.05,significant decrease
same,change in Tlag versus control,p=0.21,not significant

# Reference: patent US6548043B1, “Measurement of gastric emptying” (Metabolic Solutions, Inc., priority 1999, dated 2003)
